In paper PMC10579241, “Impact of trifluoromethyl and sulfonyl groups on the biological activity of novel aryl-urea derivatives: synthesis, in-vitro, in-silico and SAR studies” (Scientific Reports, 2023):

Test system: TP53
Assay: qRT-PCR, TP53 in HCT116 cells
Type: cell-based, human
Conditions: versus negative samples
Procedure: RNA was extracted from pancreas, prostate, lung and liver cell lines using a total RNA purification kit (Qiagen, Hilden, Germany) according to the manufacturer's instructions. An aliquot of RNA was diluted in RNase-free water to estimate RNA quantity. Aliquots were used immediately for reverse transcription (RT). cDNA synthesis was performed on extracted RNA, which was treated with DNase (Invitrogen, Germany) to remove any possible DNA contamination. The DNase-treated RNA was reverse transcribed into first-strand cDNA using the RevertAid First Strand cDNA Synthesis kit (Fermantas) according to the manufacturer's instructions. Determination of the pancreas, prostate, lung and liver cell line cDNA copy number was carried out using StepOne™ Real-Time PCR System from Applied Biosystems (Thermo Fisher Scientific, Waltham, MA USA). Gene expressions were detected by real-time PCR, which was performed using the Rotor-Gene Q system (Qiagen Company). A 25 µL reaction mixture consisted of 12.5 µL SYBR® Premix Ex TaqTM (TaKaRa, Biotech. Co. Ltd.), 0.5 µL of each primer (10 PMole) (Table 1), 1 µL cDNA (50 ng) and 10.5 µL RNase free water. The optimum amplification conditions were chosen empirically according to each tested gene. Generally, the amplification conditions include initial incubation (95.0 °C for 3 min), then 40 cycles of amplification with denaturation (95.0 °C for 15 s), annealing (55.0 °C for 30 s) and extension (72.0 °C for 30 s) steps then 71 cycles which started at 60.0 °C and then increased about 0.5 °C every 10 s up to 95.0 °C. Mean cycle threshold (Ct) values of triplicate samples are used for analysis. The Ct value indicates the fractional cycle number at which the amount of amplified target reaches a fixed threshold. Data from real-time PCR were analyzed using 2^−∆∆Ct method[38]–[40]. Data were represented as the fold change in target gene expression normalized to a House-Keeping gene (HKG) and relative to the control. β-actin was used as a HKG to normalize input RNA amount, RNA quality and reverse transcription efficiency.

Cc1ccc(S(=O)(=O)NC(=O)Nc2ccc(C(F)(F)F)cc2)cc1 [Compound 7, 4-Methyl-N-[(4-{trifluoromethyl}phenyl)carbamoyl]benzenesulfonamide]
TP53 gene expression level: suppression
